Literature values, collected in patent US6562827B1, “Heterocyclically substituted amides used as calpain inhibitors” (Abbott Laboratories, priority 1998, dated 2003).

Key:
calpain [1] = settings: result in words, from the literature
[2] = known calpain inhibitors
calpain [3] = settings: known calpain inhibitors
[4] = tested on: tyrosine kinase pp60src cleaved by calpain; settings: activated platelets; Oda et al. J. Biol. Chem. 1993

cleavage of pp60src [4]	Compound	calpain inhibition (calpain [1])	crossing of cell membranes [2]	action in cells (calpain [3])
	Ph—CONH—CH(CH2Ph)—CO—COCOOCH3	only a weak calpain inhibitor		
	CC(=O)N[C@@H](CC(C)C)C(=O)N[C@@H](CC(C)C)C(=O)N[C@H](C=O)CCCNC(=N)N [leupeptin]	good calpain inhibitors	only cross the cell membranes with difficulty	only a poor action in cells
can be prevented	CCCC[C@@H](C=O)NC(=O)[C@H](CC(C)C)NC(=O)OCc1ccccc1 [calpeptin]			
	CC(C)C[C@H](NC(=O)[C@H]1O[C@@H]1C(=O)O)C(=O)NCCCCN=C(N)N [E 64]	good calpain inhibitors	only cross the cell membranes with difficulty	only a poor action in cells
